Assay results published in ChEMBL document CHEMBL3507680, “University of Dundee, Gates Library screen for HepG2 cell viability”.

assay: Human HepG2 cell viability assay in 384 well format; type: toxicity, cell-based; set-up: dose 125 nL, time 70.5 hour; concentration not given beside the values; settings: HepG2 cells, read-out: Inhibition

Row | SMILES | cytotoxicity at 70.5 h [%]
1 | O=C(Cc1cccs1)N1C[C@@H]2CC[C@H](C1)N(Cc1ccccn1)C2=O | -10.5
2 | Cn1cc(CCNC(=O)N2CCCC(Cc3nccn3C)C2)cn1 (centres undefined) | -0.841
3 | CN(CCCc1cnn(C)c1)Cc1cc2n(n1)CCCN(C)C2 | -7.1
4 | CNC(=O)NCCc1csc2ccccc12 | -0.00639
5 | CCCn1nc(C)c(-c2cncn2CC2(N(C)C)CCC(C)CC2)c1C (centres undefined) | -5.71
6 | Cc1cc2ncn(C(=O)N3CCCCC3)c2cc1C | -7.84
7 | Cc1nnc(N2CC[C@H]3C[C@@H](C(=O)NC4CCCC4)O[C@H]3C2)s1 | 27
8 | COCCN(C)CC(=O)N1C[C@@H](NC(C)=O)[C@H](c2ccc(OC)cc2)C1 | -17.6
9 | NCc1ccc(N2CCN(c3ncccn3)CC2)c(F)c1 | 6.72
10 | Cc1csc(C(C)(C)NCC(=O)N2CCCC(C(N)=O)C2)n1 (centres undefined) | 6.15
11 | O=C1NC[C@@]2(C(=O)O)CN(Cc3cccc(C(F)(F)F)c3)C[C@@H]12 | 7.18
12 | OC1COCCN(Cc2cccc(N3CCOCC3)c2)C1 (centres undefined) | -5.01
13 | CC(c1ccc(F)c(F)c1)N(C)CCS(=O)(=O)CCC(N)=O (centres undefined) | -9.48
14 | O=C(O)c1ccccc1CN1CCC(c2ccnc3ccnn23)CC1 | -4.52
15 | Cc1nc2n(n1)CCN(S(=O)(=O)c1ccc(OC(F)(F)F)cc1)C2 | -1.32
16 | CC(C)c1nc(C2CCCN2CCS(C)(=O)=O)no1 (centres undefined) | -12.9
17 | Fc1cccc(C(NCc2ncc[nH]2)c2ccccn2)c1 (centres undefined) | -6.19
18 | Cc1ccc(CNC(=O)CN2CCOC(Cn3cncn3)C2)s1 (centres undefined) | -2.32
19 | CC(C)CN1CCC2(CCN(Cc3nccs3)CC2)C1=O | 0.492
20 | CCOC(=O)c1cnn(C2CCN(C(=O)CCC(C)C)CC2)c1N | 0.0774
21 | Cc1noc(C)c1-c1cccc(C2CCCNC2)n1 (centres undefined) | 2.18
22 | COC(=O)NCC(=O)N1CCCn2nc(CN3CC[C@H](F)C3)cc2C1 | -3.88
23 | Cc1nc(C)n(CC2CCCN2Cc2nc(-c3ccoc3)no2)n1 (centres undefined) | -11.7

Row | SMILES | cytotoxicity at 70.5 h [%]
24 | Cc1nc2c(cc1C(=O)Nc1ccccc1Cl)c(=O)n(C)c(=O)n2C | -9.88
25 | CN(CC(=O)N1CCc2[nH]c3ccc(F)cc3c2C1)CC1OCCO1 | 3.34
26 | Cn1cc(-c2nc(CN3CCOC(Cn4cncn4)C3)cs2)cn1 (centres undefined) | 1.83
27 | COCCOC1CCN(C(C(=O)O)c2ccc(F)c(Cl)c2)CC1 (centres undefined) | -9.08
28 | COC(=O)c1cccc(CN(C)Cc2ncnn2C)c1C#N | 28.8
29 | COc1c(CNC(c2ccc(F)cc2)c2nccn2C)c(C)nn1C (centres undefined) | 45.1
30 | CCc1ncncc1C(=O)NCCNS(=O)(=O)c1ccc(C)cc1 | -1.77
31 | O=C(Cn1cc(C2CC2)nn1)N(Cc1ccco1)CC1CCCO1 (centres undefined) | 10.2
32 | O=C1C(Sc2nc(=O)ccn2C2CC2)CCN1c1ccccc1 (centres undefined) | 0.555
33 | CCn1c(N)nc2cc(C(=O)N3CCCN(C)CC3)cnc21 | 3.17
34 | O=C1[C@H]2CN(c3ncccn3)C[C@H]2CN1Cc1ccncc1 | 3.36
35 | C=C(C)COc1ccccc1C(=O)N(C)C(C)c1c(C)n[nH]c1C (centres undefined) | -2.31
36 | CCC(C)NC(=O)c1ccc(CNC(=O)CC(C)(C)C)cc1 (centres undefined) | -9.82
37 | COc1ccccc1CC(=O)NS(C)(=O)=O | -10.7
38 | CCN(Cc1ccncc1)CC1(C)Cc2c(N)nc(N)nc2O1 (centres undefined) | -2.81
39 | CN(CC(=O)N1CCCCC1Cn1cccn1)Cc1ccccc1 (centres undefined) | 13
40 | CN(C)C(=O)N1CCC2(CC1)COCCN(c1ncccn1)C2 | -3.19
41 | Cc1ccn(CCC(=O)NCc2ccc(C)o2)n1 | -1.65
42 | CCCn1cnc(S(=O)(=O)Nc2cccnc2-n2cccn2)c1 | 19.8
43 | CCN(CC)C(=O)c1ccc(NC(=O)CNc2ccc(F)cc2Cl)cc1 | -6.34
44 | COCC(=O)N1CC[C@@H](N2CCN(C)CC2)[C@@H]1Cc1ccccc1 | 9.62
45 | CCNC(=O)N(C)C1CCCc2nc(C)sc21 (centres undefined) | -2.26
46 | Cc1ccc(-c2cc(CNC(=O)N3CCC(CO)CC3)on2)cc1 | 5.23

Row | SMILES | cytotoxicity at 70.5 h [%]
47 | O=C(NCc1csc2ccc(Cl)cc12)c1cc2n(n1)CCNC2 | 3.64
48 | Cc1cccc(-n2ncc3c(=O)n(CCN4CCCCC4)cnc32)c1C | 28
49 | Cc1noc(C)c1CN(C)C(=O)c1ccc2c(c1O)OC(C)(C)C2 | 1.38
50 | CN(Cc1cnn(C)c1)Cc1nc(Cc2cccc(Cl)c2)no1 | -7.96
51 | COc1ccc(N2CCN(C(=O)CCn3nccc3C)C(C)C2)cc1 (centres undefined) | -3.13
52 | Cc1cccc(COc2ccccc2C(=O)N2CCC(C(N)=O)CC2)c1 | 4.8
53 | COc1ccc(Cl)cc1CC(=O)N1CCN(CC(C)O)CC1 (centres undefined) | -5.64
54 | CCOC(=O)c1cnn(C2CCN(C(=O)CC(C)(C)C)CC2)c1N | 4.77
55 | Cc1ccc(-c2nc(CCNC(=O)NCC(C)(C)C(N)=O)co2)cc1 | -0.0567
56 | O=C(CCc1ccccc1)N1CCn2cc(Cn3cncn3)nc2C1 | -11.8
57 | CCc1cccc(NC(=O)N2CCn3cnc(COC)c3C2)c1 | -14.2
58 | CC(C)(C)OC(=O)N1CSC[C@@H]1C(=O)NCc1ccc(C#N)cc1 | -3.01
59 | Cc1cc(C(=O)N2CCC(C)CC2)ccc1NS(C)(=O)=O | -4.78
60 | CC(C)c1nc2n(n1)CC(NCc1nnc(C3CC3)o1)CC2 (centres undefined) | 0.876
61 | O=C(NCCNC(=O)C1CC1)c1sccc1Br | -6.03
62 | Cc1noc(CS(=O)(=O)CC(=O)NC(C)c2ccccc2)n1 (centres undefined) | -12.5
63 | CS(=O)(=O)NCCC(=O)Nc1ccccc1N1CCc2ccccc21 | -22.1
64 | Cc1[nH]ccc1C(=O)N(C)C1CC(=O)N(Cc2ccccc2)C1=O (centres undefined) | -2.82
65 | CC(C)CN(CC(O)c1ccccc1)C(=O)NC(C)C (centres undefined) | -4.36
66 | CC(C)[C@]1(O)CN(C(=O)C2(Cn3cccn3)CC2)C[C@H]1C | -7.77
67 | CC(C)c1nc(-c2cc(C(=O)NCCCO)c3ccccn23)cs1 | -3.65
68 | Cc1cnn(CCNCc2nc(-c3ccsc3)oc2C)c1 | 7.72
69 | O=C(NCC1CC1)[C@@H]1CCO[C@@H]2CCN(Cc3ccc(F)cc3)C[C@H]21 | -4.34

Row | SMILES | cytotoxicity at 70.5 h [%]
70 | Cc1noc(C)c1C[S+]([O-])Cc1cn2cccc(C)c2n1 (centres undefined) | -4.48
71 | Cc1c(CC(=O)N2CCSCC2)nnn1-c1cccc(Cl)c1 | 23.4
72 | CC(=O)N1CCN(C(=O)c2snnc2C)[C@H]2CS(=O)(=O)C[C@H]21 | -6.51
73 | O=C(NCCc1ccccn1)c1n[nH]c2c1CCC2 | -5.6
74 | CC1CCCN(Cc2ccc(OCc3nccn3C)cc2)C1 (centres undefined) | 14.2
75 | CNc1nccnc1C1CN(C(=O)c2c[nH]cn2)CCO1 (centres undefined) | 3.73
76 | O=S1(=O)CCC(n2cc(CNCC3(c4ccccc4)CC3)cn2)C1 (centres undefined) | 30.7
77 | Cc1oc(-c2ccsc2)nc1CC(=O)NCC(C)(C)CN(C)C | -9.09
78 | CN(C)C1Cc2ccccc2N(S(=O)(=O)c2cccc(C#N)c2)C1 (centres undefined) | -4.2
79 | CCn1ncc(NC(=O)c2cc(C3CC3)nc3c2c(C)nn3C)c1C | 35.5
80 | COCC1CN(C(=O)c2cccn2C)Cc2nccn2C1 (centres undefined) | -18.2
81 | COc1c(CNCc2ccc(CN(C)C)cc2)c(C)nn1C | -4.98
82 | CN1CCN(C[C@H]2CC[C@@H](Cc3ccc(CN4CCCC4)cc3)O2)CC1 | -6.45
83 | CCC(C)(CC(=O)OC)NCc1nc(C)no1 (centres undefined) | 28.3
84 | CN(C)C(=O)C1CCC2(CCN(C(=O)Nc3ccc(F)cc3)CC2)O1 (centres undefined) | -12.4
85 | Cn1cc(C(=O)CC2CCCN2C(=O)c2coc3ccccc23)cn1 (centres undefined) | -12.8
86 | COc1ccccc1OCC(=O)NS(=O)(=O)c1cccnc1 | -8.19
87 | Cc1ccc(CN2Cc3ccnn3CC(C(=O)NCC3CC3)C2)o1 (centres undefined) | -13.3
88 | COc1cccc(F)c1-c1c[nH]c(C)n1 | 11.7
89 | Cc1cc(CN(C)CCC(O)c2ccccc2)nn1C (centres undefined) | -2.1
90 | CN(C)C(=O)c1ccc2c(c1)N(C)C(CC(=O)NC(C)(C)CO)CO2 (centres undefined) | 18.8
91 | CC(C)c1noc(CN2CCC(c3ccnn3CCO)CC2)n1 | -3.73
92 | CCS(=O)(=O)Nc1ccc2c(c1)C1(CCOCC1)CN2C | -1.55

Row | SMILES | cytotoxicity at 70.5 h [%]
93 | CN(c1cccnn1)[C@@H]1CC[C@@H]2CN(Cc3cccc(C(=O)O)c3)C[C@@H]21 | -6.81
94 | CC[C@@H]1N(CC2CC2)CCC[C@]12CCC(=O)N2CCOC | -9.87
95 | CCCN1CCC(CC(=O)N(C)C(C)c2cncs2)CC1 (centres undefined) | -16.1
96 | COCCCNC(=O)CN(C)C(=O)c1ccccc1O | -3.02
97 | O=C(c1cncc(Br)c1)N1CCCc2c(F)cc(F)cc21 | -3
98 | CC(Cn1cccn1)NC(=O)N(C)Cc1cnn(C)c1 (centres undefined) | -7.21
99 | Cn1cncc1C(=O)N1CCCC(c2ccn[nH]2)C1 (centres undefined) | -16.9
100 | COC(=O)COn1c(SC)nc2ccccc2c1=O | -9.2
101 | Cc1cccc2c1nc(CCO)n2-c1ccc(C(=O)N2CCCC2)o1 | 12.9
102 | COc1ncc(CN2CCCC2c2[nH]ncc2C(=O)N(C)C)cn1 (centres undefined) | 23.2
103 | COc1c(C2CCCN2C(=O)c2ccc(Cl)o2)c(C)nn1C (centres undefined) | -5.88
104 | CC(=O)NCc1ccc(C(=O)N2CCCC(n3cncn3)C2)o1 (centres undefined) | 20.5
105 | O=C(CS(=O)(=O)Cc1cccc(Br)c1)Nc1cn[nH]c1 | -2.81
106 | CCCc1n[nH]c(C2CN(C(=O)c3cccnc3N(C)C)CCO2)n1 (centres undefined) | -0.878
107 | Cc1cccc2cc(CNCCCN3CCOCC3)c(=O)[nH]c12 | 33.6
108 | COc1cccc(C2=CCN(CCN3CCOC3=O)CC2)c1 | 11.1
109 | Cc1cnnn1Cc1nnn2c1CN(Cc1ccccn1)CCC2 | -7.24
110 | C[C@H](c1ccc(F)cc1)n1c(C2CCN(C)CC2)n[nH]c1=O | 19.4
111 | O=C(NCc1csc(Br)c1)N1CCC(O)CC1 | -4.25
112 | CC(C)NC(=O)c1nnn(-c2cccc(C(F)(F)F)c2)c1C1CC1 | 10.4
113 | Cc1nn(CC(=O)N2CCCC2Cn2cccn2)c(C)c1Cl (centres undefined) | 9.12
114 | CN(CCC(O)c1ccccc1)c1cc(N2CCOCC2)ncn1 (centres undefined) | -11
